Source: PMC5921725 (Japanese Journal of Cancer Research : Gann, 1998)
Read-outs that look alike come from different tables or passages of the source.

Legend:
human P-gp [1] = target: T1, human P-gp (Homo sapiens, UniProt P08183); conditions: for effect on [14C]doxorubicin transport: LLC-GA5-COL150
human P-gp [2] = target: T1, human P-gp
human P-gp [3] = target: T1, human P-gp; conditions: 2 μM inhibitor, LLC-GA5-COL150, after last sampling (3 h)
P-gp = conditions: cited from earlier work
[4] = clinical trials, cited from earlier work
human P-gp [5] = target: T1, human P-gp; assay: Transcellular transport of PSC833 in LLC-PK1 and LLC-GA5-COL150 cells

T1 sequence (P08183 whole entry): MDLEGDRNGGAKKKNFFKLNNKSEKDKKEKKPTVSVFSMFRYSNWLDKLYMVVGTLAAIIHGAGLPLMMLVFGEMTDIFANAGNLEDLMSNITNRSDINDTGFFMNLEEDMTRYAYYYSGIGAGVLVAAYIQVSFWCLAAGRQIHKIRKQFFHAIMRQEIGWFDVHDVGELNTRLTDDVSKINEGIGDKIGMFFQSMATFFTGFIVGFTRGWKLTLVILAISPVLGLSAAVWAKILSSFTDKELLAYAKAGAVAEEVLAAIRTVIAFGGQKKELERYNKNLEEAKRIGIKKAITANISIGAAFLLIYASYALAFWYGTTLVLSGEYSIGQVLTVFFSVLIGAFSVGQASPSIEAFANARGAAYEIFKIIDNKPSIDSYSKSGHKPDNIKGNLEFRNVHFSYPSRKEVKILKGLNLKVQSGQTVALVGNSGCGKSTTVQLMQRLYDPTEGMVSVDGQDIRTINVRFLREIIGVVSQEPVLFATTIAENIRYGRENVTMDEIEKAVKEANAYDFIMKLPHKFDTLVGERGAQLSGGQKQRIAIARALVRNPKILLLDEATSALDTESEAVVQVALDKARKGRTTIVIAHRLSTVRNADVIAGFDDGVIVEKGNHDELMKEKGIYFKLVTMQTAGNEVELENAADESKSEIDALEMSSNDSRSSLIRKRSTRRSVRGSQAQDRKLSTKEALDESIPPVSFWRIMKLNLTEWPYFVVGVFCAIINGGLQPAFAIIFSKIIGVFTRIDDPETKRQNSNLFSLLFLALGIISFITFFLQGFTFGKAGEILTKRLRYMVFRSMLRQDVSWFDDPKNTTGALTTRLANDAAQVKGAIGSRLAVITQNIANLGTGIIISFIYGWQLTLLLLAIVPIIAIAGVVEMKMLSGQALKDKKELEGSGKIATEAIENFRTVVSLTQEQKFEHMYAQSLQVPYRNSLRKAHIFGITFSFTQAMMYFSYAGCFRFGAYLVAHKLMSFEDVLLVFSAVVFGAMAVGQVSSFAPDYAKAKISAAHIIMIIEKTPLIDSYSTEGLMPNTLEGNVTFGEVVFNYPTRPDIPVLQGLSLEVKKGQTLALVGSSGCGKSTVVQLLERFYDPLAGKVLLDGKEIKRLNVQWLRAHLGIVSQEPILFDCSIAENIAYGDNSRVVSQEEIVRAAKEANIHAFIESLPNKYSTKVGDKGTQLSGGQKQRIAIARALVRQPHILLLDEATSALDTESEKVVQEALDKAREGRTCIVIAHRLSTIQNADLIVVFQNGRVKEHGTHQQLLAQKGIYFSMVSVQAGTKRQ

For `C/C=C/C[C@@H](C)C(=O)[C@H]1C(=O)N[C@@H](C(C)C)C(=O)N(C)CC(=O)N(C)[C@@H](CC(C)C)C(=O)N[C@@H](C(C)C)C(=O)N(C)[C@@H](CC(C)C)C(=O)N[C@@H](C)C(=O)N[C@H](C)C(=O)N(C)[C@@H](CC(C)C)C(=O)N(C)[C@@H](CC(C)C)C(=O)N(C)[C@@H](C(C)C)C(=O)N1C` [PSC833, [3′‐keto‐Bmt1]‐Val2]‐cyclosporin], the “effect on [14C]doxorubicin transport” value (human P-gp [1]; 0.1 μM inhibitor) was “little inhibitory effect”, the “IC50 of PSC833 for [14C]doxorubicin transport as % of that of Cs-A” value (human P-gp [1]; Table I) was 10% and the “effect on [14C]doxorubicin transport” value (human P-gp [1]; inhibitor concentrations greater than 0.5 μM) was “strong inhibitory effect”. The “IC50 of PSC833 less than that of Cs-A for [14C]doxorubicin transport” value (human P-gp [1]; ratio of IC50 values, Table I) was ~10 fold, the “effect on [3H]vinblastine transport” value (human P-gp [2]; 2 μM inhibitor, LLC-GA5-COL150) was “almost completely inhibited” and the “IC50 of PSC833 for vinblastine transport as % of that of Cs-A” value (human P-gp [2]; Table I) was 20%. For the same molecule, the “IC50 of PSC833 less than that of Cs-A for [3H]vinblastine transport” value (human P-gp [2]; ratio of IC50 values, Table I) was “about 5 fold”, the “intracellular accumulation of [3H]vinblastine” value (human P-gp [3]) was “approached the control level” and the “more effective than Cs-A in displacing the photoactivatable cyclosporin analogue” value (P-gp) was “approximately 2.5 fold”. The “concentrations at which the AUC of coadministered anticancer drugs increased” value [4] was 1000 to 2000 ng/mL, the “increase in the AUC of doxorubicin” value ([4]; combination therapy with PSC833 and doxorubicin) was 20-199% and the “transported amount in LLC-GA5-COL150 cells compared with LLC-PK1 cells” value (human P-gp [5]; 10 μM PSC833, 3 and 6 h, 37C, HPLC-UV) was “approximately the same”. For the same molecule, the “transport by P-gp” value (human P-gp [5]; LLC-GA5-COL150 vs LLC-PK1 monolayers, 10 μM, both directions) was “not transported”.
